From patent US20040224958A1, “Pyridopyrimidinone derivatives for treatment of neurodegenerative disease” (priority 2000, published 2004) come the findings set out here.

The target of one assay is Cdk5/p25 (Homo sapiens, UniProt Q00535). Description: Cyclin-Dependent Kinase 5 High Throughput Screening (cdk5-HTS) Assay. The assay is classed as biochemical. The settings on record: high throughput screen. In outline: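 Cdk5/p25 (1.0 μg/mL) phosphorylates GST-RbCOOH (20 μg/mL) in 50 mM Tris pH 7.4 with 10 mM MgCl2 and 20 μM ATP spiked with [γ33P]ATP, 30 min at room temperature. After EDTA stop, substrate captured on glutathione-coated plates; 33P incorporation counted by scintillation; IC50 determined.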

The target of the next assay is cdk2/cyclinA (Homo sapiens, UniProt P24941). Description: Cyclin-Dependent Kinase Assay cdk2/cyclinA.
The next assay addresses cdc2/cyclinB (Homo sapiens, UniProt P06493). Description: Cyclin-Dependent Kinase Assay cdc2/cyclinB.
The next assay has as its target cdk2/cyclinE (Homo sapiens, UniProt P24941). Description: Cyclin-Dependent Kinase Assay cdk2/cyclinE.
A further assay addresses cdk4/D (Homo sapiens, UniProt P11802). Description: Cyclin-Dependent Kinase 4 (cdk4) Assay. The assay is classed as biochemical. The settings on record: read-out: cdk4/D IC50.

Read-outs that look alike come from different tables or passages of the source.

cdc2/cyclinB, sequence (P06493 whole entry): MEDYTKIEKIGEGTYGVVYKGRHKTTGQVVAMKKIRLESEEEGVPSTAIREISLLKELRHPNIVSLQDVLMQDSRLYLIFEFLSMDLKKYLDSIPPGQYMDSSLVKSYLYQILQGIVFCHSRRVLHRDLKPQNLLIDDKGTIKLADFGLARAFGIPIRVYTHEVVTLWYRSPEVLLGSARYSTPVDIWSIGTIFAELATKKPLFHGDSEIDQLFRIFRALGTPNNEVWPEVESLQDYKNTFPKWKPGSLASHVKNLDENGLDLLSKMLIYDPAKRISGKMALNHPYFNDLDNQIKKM
cdc2/cyclinB, sequence (P14635 whole entry, further chain): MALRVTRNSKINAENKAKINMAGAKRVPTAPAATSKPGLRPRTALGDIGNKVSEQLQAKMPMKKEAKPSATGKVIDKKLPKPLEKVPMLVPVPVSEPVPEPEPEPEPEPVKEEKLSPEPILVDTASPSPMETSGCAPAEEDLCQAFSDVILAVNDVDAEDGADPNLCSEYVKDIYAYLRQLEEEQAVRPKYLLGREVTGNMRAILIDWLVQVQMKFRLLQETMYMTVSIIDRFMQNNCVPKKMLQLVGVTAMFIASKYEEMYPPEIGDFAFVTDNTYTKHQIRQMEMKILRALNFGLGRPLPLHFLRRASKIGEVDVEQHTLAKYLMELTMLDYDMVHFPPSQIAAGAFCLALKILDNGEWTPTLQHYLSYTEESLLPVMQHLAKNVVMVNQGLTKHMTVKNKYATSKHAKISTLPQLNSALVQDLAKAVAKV
cdk4/D, sequence (P11802 whole entry): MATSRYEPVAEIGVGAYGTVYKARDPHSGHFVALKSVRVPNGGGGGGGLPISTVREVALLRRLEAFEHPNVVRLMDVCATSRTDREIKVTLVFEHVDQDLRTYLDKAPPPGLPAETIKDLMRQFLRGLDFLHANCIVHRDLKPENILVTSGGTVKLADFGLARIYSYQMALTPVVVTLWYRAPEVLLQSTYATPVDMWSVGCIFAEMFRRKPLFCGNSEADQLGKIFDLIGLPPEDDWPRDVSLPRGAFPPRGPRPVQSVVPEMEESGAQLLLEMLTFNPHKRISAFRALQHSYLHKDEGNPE
cdk4/D, sequence (P24385 whole entry, further chain): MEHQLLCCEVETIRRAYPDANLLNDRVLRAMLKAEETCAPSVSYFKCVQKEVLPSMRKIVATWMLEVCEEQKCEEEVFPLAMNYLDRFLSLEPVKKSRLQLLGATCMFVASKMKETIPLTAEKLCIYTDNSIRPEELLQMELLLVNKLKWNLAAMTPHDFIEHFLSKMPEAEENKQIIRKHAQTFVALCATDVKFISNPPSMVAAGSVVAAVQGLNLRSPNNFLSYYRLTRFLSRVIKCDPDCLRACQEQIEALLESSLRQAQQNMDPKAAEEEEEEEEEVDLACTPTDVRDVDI

`CCCn1c(=O)ccc2cnc(Nc3ccc(C#N)c(NC(C)=O)c3)nc21` [Example 340, N-[2-Cyano-5-(7-oxo-8-propyl-7,8-dihydro-pyrido[2,3-d]pyrimidin-2-ylamino)-phenyl]-acetamide]: the IC50 stood at 170 nM against Cdk5/p25; 960 nM on cdk2/cyclinA (cdk2/A IC50); 1300 nM at cdc2/cyclinB; 350 nM against cdk2/cyclinE (cdk2/E IC50); 310 nM on cdk4/D.

Take `CCCn1c(=O)ccc2cnc(Nc3ccc(Br)c(Cl)c3)nc21` [Example 341, 2-(4-Bromo-3-chloro-phenylamino)-8-propyl-8H-pyrido[2,3-d]pyrimidin-7-one]: the IC50 is 92 nM at Cdk5/p25; 890 nM at cdk2/cyclinA (cdk2/A IC50); 520 nM on cdc2/cyclinB; 280 nM against cdk2/cyclinE (cdk2/E IC50); 420 nM on cdk4/D.

Consider `CCCn1c(=O)ccc2cnc(Nc3ccc(I)c(Cl)c3)nc21` [Example 344, 2-(3-Chloro-4-iodo-phenylamino)-8-propyl-8H-pyrido[2,3-d]pyrimidin-7-one], for which the IC50 against Cdk5/p25 stood at 46 nM; against cdk2/cyclinA (cdk2/A IC50), 990 nM; at cdc2/cyclinB, 360 nM; against cdk2/cyclinE (cdk2/E IC50), 470 nM; at cdk4/D, 370 nM.

Turning to `CCCn1c(=O)ccc2cnc(Nc3ccc(N(C)C(C)=O)cc3)nc21` [Example 345, N-Methyl-N-[4-(7-oxo-8-propyl-7,8-dihydro-pyrido[2,3-d]pyrimidin-2-ylamino)-phenyl]-acetamide], the IC50 against Cdk5/p25 was determined as 160 nM; against cdk2/cyclinA (cdk2/A IC50) it was 830 nM; at cdc2/cyclinB, 590 nM; at cdk2/cyclinE (cdk2/E IC50), 430 nM; on cdk4/D, 160 nM.

Take `CCCn1c(=O)ccc2cnc(Nc3cc(C)cc(C)c3)nc21` [Example 346, 2-(3,5-Dimethyl-phenylamino)-8-propyl-8H-pyrido[2,3-d]pyrimidin-7-one]: the IC50 against Cdk5/p25 came out at 29 nM; on cdk2/cyclinA (cdk2/A IC50), 450 nM; against cdc2/cyclinB it was 61 nM; against cdk2/cyclinE (cdk2/E IC50), 260 nM; at cdk4/D, 310 nM.

For the molecule `CCCn1c(=O)ccc2cnc(Nc3ccc(C)c(Cl)c3)nc21` [Example 347, 2-(3-Chloro-4-methyl-phenylamino)-8-propyl-8H-pyrido[2,3-d]pyrimidin-7-one], the IC50 at Cdk5/p25 was 35 nM; against cdk2/cyclinA (cdk2/A IC50), 580 nM; against cdc2/cyclinB, 140 nM; against cdk2/cyclinE (cdk2/E IC50), 120 nM; on cdk4/D, 58 nM.

Regarding `CCCn1c(=O)ccc2cnc(Nc3cccc(S(N)(=O)=O)c3)nc21` [Example 348, 3-(7-Oxo-8-propyl-7,8-dihydro-pyrido[2,3-d]pyrimidin-2-ylamino)-benzenesulfonamide], the IC50 turned out to be 13 nM on Cdk5/p25; 170 nM against cdk2/cyclinA (cdk2/A IC50); 62 nM at cdc2/cyclinB; 49 nM on cdk2/cyclinE (cdk2/E IC50); 14 nM at cdk4/D.

As for `CCCn1c(=O)ccc2cnc(Nc3ccc(F)c([N+](=O)[O-])c3)nc21` [Example 351, 2-(4-Fluoro-3-nitro-phenylamino)-8-propyl-8H-pyrido[2,3-d]pyrimidin-7-one], the IC50 at Cdk5/p25 stood at 310 nM; against cdk2/cyclinA (cdk2/A IC50), 1300 nM; against cdc2/cyclinB, 700 nM; on cdk2/cyclinE (cdk2/E IC50), 560 nM; at cdk4/D it was 1200 nM.

For `CCCn1c(=O)ccc2cnc(Nc3ccc(O)c(C)c3)nc21` [Example 354, 2-(4-Hydroxy-3-methyl-phenylamino)-8-propyl-8H-pyrido[2,3-d]pyrimidin-7-one], the IC50 at Cdk5/p25 is 770 nM; at cdk2/cyclinA (cdk2/A IC50) it was 1100 nM; against cdc2/cyclinB, 1600 nM; against cdk2/cyclinE (cdk2/E IC50), 1200 nM; on cdk4/D, 910 nM.

For `CCCn1c(=O)ccc2cnc(Nc3ccc4c(c3)C(C)C(C)N4)nc21` (stereo not drawn) [Example 356, 2-(2,3-Dimethyl-2,3-dihydro-1H-indol-5-ylamino)-8-propyl-8H-pyrido[2,3-d]pyrimidin-7-one], the IC50 on Cdk5/p25 came to 61 nM; at cdk2/cyclinA (cdk2/A IC50), 470 nM; on cdc2/cyclinB, 410 nM; against cdk2/cyclinE (cdk2/E IC50), 510 nM; on cdk4/D it was 290 nM.

Turning to `CCCn1c(=O)ccc2cnc(Nc3ccc4c(c3)CCN4)nc21` [Example 357, 2-(2,3-Dihydro-1H-indol-5-ylamino)-8-propyl-8H-pyrido[2,3-d]pyrimidin-7-one], the IC50 was 290 nM against Cdk5/p25; 1600 nM on cdk2/cyclinA (cdk2/A IC50); 2100 nM against cdc2/cyclinB; 700 nM against cdk2/cyclinE (cdk2/E IC50); 360 nM at cdk4/D.

On to `CCCn1c(=O)ccc2cnc(Nc3ccc4cn[nH]c4c3)nc21` [Example 358, 2-(1H-Indazol-6-ylamino)-8-propyl-8H-pyrido[2,3-d]pyrimidin-7-one], for which the IC50 on Cdk5/p25 came out at 90 nM; at cdk2/cyclinA (cdk2/A IC50), 83 nM; at cdc2/cyclinB, 160 nM; at cdk2/cyclinE (cdk2/E IC50), 180 nM; at cdk4/D, 300 nM.

`CCCn1c(=O)ccc2cnc(Nc3cc(F)c(F)c(F)c3)nc21` [Example 359, 8-Propyl-2-(3,4,5-trifluoro-phenylamino)-8H-pyrido[2,3-d]pyrimidin-7-one]: the IC50 on Cdk5/p25 was 180 nM; against cdk2/cyclinA (cdk2/A IC50), 430 nM; on cdc2/cyclinB it was 390 nM; against cdk2/cyclinE (cdk2/E IC50), 450 nM; on cdk4/D, 1800 nM.

Consider `CCCn1c(=O)ccc2cnc(Nc3ccc(Br)c(C)c3)nc21` [Example 360, 2-(4-Bromo-3-methyl-phenylamino)-8-propyl-8H-pyrido[2,3-d]pyrimidin-7-one], for which the IC50 against Cdk5/p25 turned out to be 86 nM; on cdk2/cyclinA (cdk2/A IC50) it was 1000 nM; on cdc2/cyclinB it was 340 nM; against cdk2/cyclinE (cdk2/E IC50), 990 nM; at cdk4/D, 390 nM.

For the molecule `CCCn1c(=O)ccc2cnc(Nc3ccc(C(F)(F)F)cc3)nc21` [Example 361, 8-Propyl-2-(4-trifluoromethyl-phenylamino)-8H-pyrido[2,3-d]pyrimidin-7-one], the IC50 on Cdk5/p25 is 150 nM; at cdk2/cyclinA (cdk2/A IC50) it was 310 nM; at cdc2/cyclinB it was 180 nM; against cdk2/cyclinE (cdk2/E IC50) it was 440 nM; at cdk4/D, 350 nM.

Turning to `CCCCn1c(=O)ccc2cnc(Nc3ccccc3)nc21` [Example 364, 8-Butyl-2-phenylamino-8H-pyrido[2,3-d]pyrimidin-7-one], the IC50 against Cdk5/p25 was found to be 87.5 nM; against cdk2/cyclinA (cdk2/A IC50), 255 nM; on cdc2/cyclinB, 200 nM; against cdk2/cyclinE (cdk2/E IC50) it was 60.3 nM; at cdk4/D, 240 nM.

`CCCCn1c(=O)ccc2cnc(Nc3ccc(OC)c(Cl)c3)nc21` [Example 365, 8-Butyl-2-(3-chloro-4-methoxy-phenylamino)-8H-pyrido[2,3-d]pyrimidin-7-one]: the IC50 was determined as 59.8 nM on Cdk5/p25; 446 nM against cdk2/cyclinA (cdk2/A IC50); 204 nM against cdc2/cyclinB; 122 nM against cdk2/cyclinE (cdk2/E IC50); 475 nM on cdk4/D.

Consider `CCCCn1c(=O)ccc2cnc(Nc3ccc(F)cc3F)nc21` [Example 368, 8-Butyl-2-(2,4-difluoro-phenylamino)-8H-pyrido[2,3-d]pyrimidin-7-one], for which the IC50 is 723 nM at Cdk5/p25; 3060 nM against cdk2/cyclinA (cdk2/A IC50); 1360 nM against cdc2/cyclinB; 836 nM against cdk2/cyclinE (cdk2/E IC50); 3010 nM at cdk4/D.

Regarding `CCCn1c(=O)ccc2cnc(Nc3ccc(F)c(Cl)c3)nc21` [Example 369, 2-(3-Chloro-4-fluoro-phenylamino)-8-propyl-8H-pyrido[2,3-d]pyrimidin-7-one], the IC50 against Cdk5/p25 worked out at 85.3 nM; on cdk2/cyclinA (cdk2/A IC50), 287 nM; against cdc2/cyclinB, 129 nM; against cdk2/cyclinE (cdk2/E IC50) it was 71.9 nM; on cdk4/D, 526 nM.

In the case of `CCCCn1c(=O)ccc2cnc(Nc3ccc(N(C)C(C)=O)cc3)nc21` [Example 370, N-[4-(8-Butyl-7-oxo-7,8-dihydro-pyrido[2,3-d]pyrimidin-2-ylamino)-phenyl]-N-methyl-acetamide], the IC50 worked out at 917 nM against Cdk5/p25; 610 nM against cdk2/cyclinA (cdk2/A IC50); 808 nM against cdc2/cyclinB; 1280 nM at cdk2/cyclinE (cdk2/E IC50); 1140 nM at cdk4/D.

For `CCCCn1c(=O)ccc2cnc(Nc3ccc(C(N)=O)cc3)nc21` [Example 371, 4-(S-Butyl-7-oxo-7,8-dihydro-pyrido[2,3-d]pyrimidin-2-ylamino)-benzamide], the IC50 is 234 nM against Cdk5/p25; 699 nM on cdk2/cyclinA (read-out: cdk2/A IC50); 372 nM at cdc2/cyclinB (read-out: cdk1/B IC50); 286 nM at cdk2/cyclinE (read-out: cdk2/E IC50); 331 nM at cdk4/D.

`CCCCn1c(=O)ccc2cnc(Nc3cccc(C(F)(F)F)c3)nc21` [Example 373, 8-Butyl-2-(3-trifluoromethyl-phenylamino)-8H-pyrido[2,3-d]pyrimidin-7-one]: the IC50 amounted to 214 nM at Cdk5/p25; 1150 nM at cdk2/cyclinA (cdk2/A IC50); 430 nM against cdc2/cyclinB; 208 nM on cdk2/cyclinE (cdk2/E IC50); 2150 nM at cdk4/D.

For `CCCCn1c(=O)ccc2cnc(Nc3ccc(Br)c(C(F)(F)F)c3)nc21` [Example 374, 2-(4-Bromo-3-trifluoromethyl-phenylamino)-8-butyl-8H-pyrido[2,3-d]pyrimidin-7-one], the IC50 on Cdk5/p25 is 379 nM; against cdk2/cyclinA (cdk2/A IC50), 2880 nM; on cdc2/cyclinB, 949 nM; on cdk2/cyclinE (cdk2/E IC50), 668 nM; on cdk4/D it was 2940 nM.

Regarding `CCCCn1c(=O)ccc2cnc(Nc3cccc(I)c3)nc21` [Example 375, 8-Butyl-2-(3-iodo-phenylamino)-8H-pyrido[2,3-d]pyrimidin-7-one], the IC50 came out at 84.7 nM against Cdk5/p25; 408 nM on cdk2/cyclinA (cdk2/A IC50); 107 nM on cdc2/cyclinB; 48.9 nM against cdk2/cyclinE (cdk2/E IC50); 720 nM on cdk4/D.
